From article doi:10.1101/212043v1 (biorxiv, 2017)

Experiments:
[1] = molecular target: T1, hsHDAC11 (Homo sapiens, UniProt Q96DB2); experiment: HPLC deacylation assay, Abz fluorescence; type: biochemical; details: […] trifluoroacetylated peptide substrate, […] enzyme, […]°C; activator
T1 sequence (Q96DB2 1-347): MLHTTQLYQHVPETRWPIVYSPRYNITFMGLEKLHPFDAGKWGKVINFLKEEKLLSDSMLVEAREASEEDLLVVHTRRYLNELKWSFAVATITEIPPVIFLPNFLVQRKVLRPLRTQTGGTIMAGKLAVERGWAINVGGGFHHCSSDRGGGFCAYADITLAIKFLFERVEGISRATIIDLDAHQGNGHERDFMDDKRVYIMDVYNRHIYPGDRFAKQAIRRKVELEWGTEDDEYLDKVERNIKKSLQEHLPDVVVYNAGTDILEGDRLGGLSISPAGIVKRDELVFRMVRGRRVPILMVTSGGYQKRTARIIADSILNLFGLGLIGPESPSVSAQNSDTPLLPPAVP

[2] = molecular target: T1, hsHDAC11; experiment: HPLC deacylation assay, Abz fluorescence; type: biochemical; details: read-out: % inhibition at 100 μM

Row | fold stimulation at 100 μM [1] [fold] | inhibition at 100 µM [2] [%] | SMILES
1 | 2.5 |  | CCCCCCCCCCCCCC(=O)SCCNC(=O)CCNC(=O)[C@H](O)C(C)(C)COP(=O)(O)OP(=O)(O)OC[C@H]1O[C@@H](n2cnc3c(N)ncnc32)[C@H](O)[C@@H]1OP(=O)(O)O [myristoyl-CoA]
2 |  | > 70 | CCCCCCCCCCCCCCCC(=O)SCCNC(=O)CCNC(=O)[C@H](O)C(C)(C)COP(=O)(O)OP(=O)(O)OC[C@H]1O[C@@H](n2cnc3c(N)ncnc32)[C@H](O)[C@@H]1OP(=O)(O)O [palmitoyl-CoA]
